These results are taken from US20220081415A1, “Amino Acid Derivatives for the Treatment of Inflammatory Diseases” (The Roskamp Institute, priority 2019, published 2022).

Counter-ions that a name gives are not always drawn.

One experiment has as its system NF-kB activation induced by TNFα. In words: TNFα Luciferase assay: inhibition of NF-kB activation induced by TNFα in HEK293/NF-kB luciferase cells. Type of experiment: cell-based. The note with it: 25 ng/ml of TNF-α for four hours, quadruplicate, read-out: IC50, concentration at which NF-kB activation was reduced by 50%. How it is done:
Determination of Inhibition of NF-kB Activation Induced by TNFα . . . In Vitro Assay
The ability of a compound disclosed herein to inhibit NFkB activation induced by TNFα was determined using the TNFα Luciferase assay. The HEK293/NF-kB luciferase cell line was obtained by cotransfection of pNFkB-luc vector with pHyg (Panomics, CA, USA) followed by hygromycin selection. HEK293/NFkB Luciferase cells were grown in DMEM medium supplemented with 10% fetal bovine serum, 100 U/ml of penicillin, 100 ng/ml of streptomycin/Fungizone, and 100 μg/ml of hygromycin B as the selecting agent. HEK293 NFkB Luciferase cells were grown in T75 flasks (Nunc™ Cell Culture Treated EasYFlasks™) in a cell culture incubator at 37° C. and 5% CO2.
Confluent T75 cell culture flasks (approximately 8-10 million of cells per flask) were washed with 10 ml of sterile PBS (without calcium and magnesium) under a biosafety cabinet. After aspiration of the PBS with a sterile glass pipette, the layer of cells (for each T75 flask) was covered with 1 ml of TrypLE™ Express without phenol red (Gibco) at room temperature. After one minute of incubation, HEK293 were mechanically resuspended in the TrypLE by tapping the side of the flask. The cells were then resuspended with 10 ml of pre-warmed complete culture medium and transferred to a conical tube. Cells were centrifuged for 5 minutes at 4000 rpm (1000 g) at room temperature. The cellular pellet was resuspended with 24 ml of pre-warmed cell culture media and […] of cell suspension (approximately 80,000 cells per well) was plated per well in 96-well cell culture plates (Costar #3599, Corning, N.Y., USA) using a multichannel pipette and reversed pipetting to prevent air bubble formation. After plating, the cells were maintained overnight in the cell culture incubator before being treated. For each 96 well cell culture plate, 8 wells were used as “control wells” (only culture medium added) and to 8 wells only TNFα was added. The NF-kB Luciferase reporter cell line was challenged with 25 ng/ml of TNF-α for four hours in the presence and absence (control conditions) of a dose range of the different compounds to be tested. For each compound, a dose range of concentrations was tested in quadruplicate and used to determine an IC50.
Luciferase activity was monitored using the Luc-Screen® Extended-Glow Luciferase Reporter Gene Assay System by chemoluminescence according to the instruction of the manufacturer (Invitrogen) and a BioTek Synergy HT plate reader (BioTek Instruments, VT, USA).
In the case of “mixture of 2-((S)-1-oxo-1-((R)-6-(pyridin-3-yl)-5,6-dihydropyridin-1(2H)-yl)butan-2-yl)isoindoline-1,3-dione and 2-((R)-1-oxo-1-((S)-6-(pyridin-3-yl)-5,6-dihydropyridin-1(2H)-yl)butan-2-yl)isoindoline-1,3-dione [Compound 6]”, the IC50 came out at 750 µM.

The experiment is the same for the next values; noted with them: Homo sapiens, 4 h, 25 ng/ml of TNF-α for four hours, quadruplicate, read-out: IC50, concentration at which NF-kB activation was reduced by 50%.
On to `CCCC(=O)Nc1ccc(C(=O)N[C@@H](Cc2ccccc2)C(=O)N2CC=CCC2c2cccnc2)cc1` (stereo partly drawn) [Compound 48, 4-butyramido-N-((2S)-1-oxo-3-phenyl-1-(6-(pyridin-3-yl)-5,6-dihydropyridin-1(2H)-yl)propan-2-yl)benzamide], for which the IC50 was 0.114 µM.

`O=C(NC(Cc1ccccc1)C(=O)N1CC=CCC1c1cccnc1)c1cccc([N+](=O)[O-])c1` (stereo not drawn) [Compound 15, 3-nitro-N-(1-oxo-3-phenyl-1-(6-(pyridin-3-yl)-5,6-dihydropyridin-1(2H)-yl)propan-2-yl)benzamide]: the IC50 was 4.3 µM.

With `CCCCNc1cccc(C(=O)N[C@@H](Cc2ccccc2)C(=O)N2CC=CCC2c2cccnc2)c1` (stereo partly drawn) [Compound 60, 3-(butylamino)-N-((2S)-1-oxo-3-phenyl-1-(6-(pyridin-3-yl)-5,6-dihydropyridin-1(2H)-yl)propan-2-yl)benzamide], the IC50 amounted to 0.216 µM.

For `Nc1cccc(C(=O)NC(Cc2ccccc2)C(=O)N2CC=CCC2c2cccnc2)c1` (stereo not drawn) [Compound 38, 3-amino-N-(1-oxo-3-phenyl-1-(6-(pyridin-3-yl)-5,6-dihydropyridin-1(2H)-yl)propan-2-yl)benzamide], the IC50 amounted to 0.25 µM.

For `CCCC(=O)Nc1cccc(C(=O)NC(Cc2ccccc2)C(=O)N2CC=CCC2c2cnc3ccccc3c2)c1` (stereo not drawn) [Compound 40, 3-butyramido-N-(1-oxo-3-phenyl-1-(2-(quinolin-3-yl)-3,6-dihydropyridin-1(2H)-yl)propan-2-yl)benzamide], the IC50 stood at 0.04 µM.

Turning to `CCCC(=O)Nc1cccc(C(=O)NC(Cc2ccccc2)C(=O)N2CC=CCC2c2cccnc2)c1` (stereo not drawn) [Compound 37, 3-butyramido-N-(1-oxo-3-phenyl-1-(6-(pyridin-3-yl)-5,6-dihydropyridin-1(2H)-yl)propan-2-yl)benzamide], the IC50 was 0.125 µM.

With `O=C(C(Cc1ccccc1)N1C(=O)c2ccccc2C1=O)N1CC=CCC1c1cccnc1` (stereo not drawn) [Compound 7, 2-(1-oxo-3-phenyl-1-(6-(pyridin-3-yl)-5,6-dihydropyridin-1(2H)-yl)propan-2-yl)isoindoline-1,3-dione], the IC50 was determined as 225 µM.

`COc1cc(C(=O)N[C@@H](Cc2ccccc2)C(=O)N2CC=CCC2c2cccnc2)ccc1F` (stereo partly drawn) [Compound 34, 4-fluoro-3-methoxy-N-((2S)-1-oxo-3-phenyl-1-(6-(pyridin-3-yl)-5,6-dihydropyridin-1(2H)-yl)propan-2-yl)benzamide]: the IC50 amounted to 2.5 µM.

With `C[C@@H](C(=O)N1CC=CC[C@H]1c1cccnc1)N1C(=O)c2ccccc2C1=O` [Compound 2, 2-((S)-1-oxo-1-((S)-6-(pyridin-3-yl)-5,6-dihydropyridin-1(2H)-yl)propan-2-yl)isoindoline-1,3-dione], the IC50 turned out to be 425 µM.

In the case of `COc1ccc(C)c(C(=O)N[C@H](Cc2ccccc2)C(=O)N2CC=CCC2c2cccnc2)c1` (stereo partly drawn) [Compound 29, 5-methoxy-2-methyl-N-((2R)-1-oxo-3-phenyl-1-(6-(pyridin-3-yl)-5,6-dihydropyridin-1(2H)-yl)propan-2-yl)benzamide], the IC50 was determined as 8 µM.

On to `CCCCn1cccc1C(=O)N[C@@H](Cc1ccccc1)C(=O)N1CC=CCC1c1cccnc1` (stereo partly drawn) [Compound 61, 1-butyl-N-((2S)-1-oxo-3-phenyl-1-(6-(pyridin-3-yl)-5,6-dihydropyridin-1(2H)-yl)propan-2-yl)-1H-pyrrole-2-carboxamide], for which the IC50 came out at 0.708 µM.

Turning to `CCOc1ccc(C(=O)N[C@@H](C)C(=O)N2CC=CCC2c2cccnc2)cc1OCC` (stereo partly drawn) [Compound 11, 3,4-diethoxy-N-((2S)-1-oxo-1-(6-(pyridin-3-yl)-5,6-dihydropyridin-1(2H)-yl)propan-2-yl)benzamide], the IC50 is 250 µM.

In the case of `COc1ccc(C(=O)NC(Cc2ccccc2)C(=O)N2CC=CCC2c2cccnc2)cc1OC` (stereo not drawn) [Compound 21, 3,4-dimethoxy-N-(1-oxo-3-phenyl-1-(6-(pyridin-3-yl)-5,6-dihydropyridin-1(2H)-yl)propan-2-yl)benzamide], the IC50 worked out at 4.5 µM.

For `O=C(N[C@@H](Cc1ccccc1)C(=O)N1CC=CCC1c1cccnc1)c1cnccn1` (stereo partly drawn) [Compound 50, N-((2S)-1-oxo-3-phenyl-1-(6-(pyridin-3-yl)-5,6-dihydropyridin-1(2H)-yl)propan-2-yl)pyrazine-2-carboxamide], the IC50 amounted to 0.131 µM.

`CC(C)[C@@H](C(=O)N1CC=CC[C@@H]1c1cccnc1)N1C(=O)c2ccccc2C1=O` (single isomer, unassigned) [Compound 4]: the IC50 came to 550 µM.

Take `O=C(NC(Cc1ccccc1)C(=O)N1CC=CCC1c1cccnc1)c1cccc(F)c1` (stereo not drawn) [Compound 19, 3-fluoro-N-(1-oxo-3-phenyl-1-(6-(pyridin-3-yl)-5,6-dihydropyridin-1(2H)-yl)propan-2-yl)benzamide]: the IC50 came out at 5.4 µM.

Take `CCCC(=O)Nc1cccc(C(=O)N[C@@H](Cc2cccc3ccccc23)C(=O)N2CC=CCC2c2cccnc2)c1` (stereo partly drawn) [Compound 64, 3-butyramido-N-((2 S)-3-(naphthalen-1-yl)-1-oxo-1-(6-(pyridin-3-yl)-5,6-dihydropyridin-1 (2H)-yl)propan-2-yl)benzamide]: the IC50 came out at 0.285 µM.

With `COc1cc(Cl)ccc1C(=O)N[C@H](Cc1ccccc1)C(=O)N1CC=CCC1c1cccnc1` (stereo partly drawn) [Compound 30, 4-chloro-2-methoxy-N-((2R)-1-oxo-3-phenyl-1-(6-(pyridin-3-yl)-5,6-dihydropyridin-1(2H)-yl)propan-2-yl)benzamide], the IC50 is 4.3 µM.

`COc1cccc(C(=O)N[C@H](Cc2ccccc2)C(=O)N2CC=CCC2c2cccnc2)c1` (stereo partly drawn) [Compound 25, 3-methoxy-N-((2R)-1-oxo-3-phenyl-1-(6-(pyridin-3-yl)-5,6-dihydropyridin-1(2H)-yl)propan-2-yl)benzamide]: the IC50 amounted to 2.5 µM.

As for `CCCC(=O)Nc1cccc(C(=O)N[C@@H](CC2CCCCC2)C(=O)N2CC=CCC2c2cccnc2)c1` (stereo partly drawn) [Compound 66, 3-butyramido-N-((2S)-3-cyclohexyl-1-oxo-1-(6-(pyridin-3-yl)-5,6-dihydropyridin-1(2H)-yl)propan-2-yl)benzamide], the IC50 stood at 0.346 µM.

As for `O=C(N[C@@H](Cc1ccccc1)C(=O)N1CC=CCC1c1cccnc1)c1ccc2ccccc2n1` (stereo partly drawn) [Compound 49, N-((2S)-1-oxo-3-phenyl-1-(6-(pyridin-3-yl)-5,6-dihydropyridin-1(2H)-yl)propan-2-yl)quinoline-2-carboxamide], the IC50 stood at 0.174 µM.

Consider `NCCC(=O)Nc1cccc(C(=O)N[C@@H](Cc2ccccc2)C(=O)N2CC=CCC2c2cccnc2)c1` (stereo partly drawn) [Compound 54, 3-(3-aminopropanamido)-N-((2S)-1-oxo-3-phenyl-1-(6-(pyridin-3-yl)-5,6-dihydropyridin-1(2H)-yl)propan-2-yl)benzamide hydrochloride], for which the IC50 turned out to be 0.186 µM.

As for `C[C@@H](C(=O)N1CC=CCC1c1cccnc1)N1C(=O)c2ccccc2C1=O` (stereo partly drawn) [Compound 1, 2-((2S)-1-oxo-1-(6-(pyridin-3-yl)-5,6-dihydropyridin-1(2H)-yl)propan-2-yl)isoindoline-1,3-dione], the IC50 amounted to 375 µM.

Regarding `CCOc1cc(C(=O)N[C@H](Cc2ccccc2)C(=O)N2CC=CCC2c2cccnc2)ccc1OC` (stereo partly drawn) [Compound 26, 3-ethoxy-4-methoxy-N-((2R)-1-oxo-3-phenyl-1-(6-(pyridin-3-yl)-5,6-dihydropyridin-1(2H)-yl)propan-2-yl)benzamide], the IC50 is 2.8 µM.

For the compound `CCCCC(=O)Nc1cccc(C(=O)NC(Cc2ccccc2)C(=O)N2CC=CCC2c2cccnc2)c1` (stereo not drawn) [Compound 36, N-(1-oxo-3-phenyl-1-(6-(pyridin-3-yl)-5,6-dihydropyridin-1(2H)-yl)propan-2-yl)-3-pentanamidobenzamide], the IC50 came out at 0.15 µM.

On to `O=C(NC(Cc1ccccc1)C(=O)N1CC=CCC1c1cccnc1)c1cccc(Cl)c1` (stereo not drawn) [Compound 18, 3-chloro-N-(1-oxo-3-phenyl-1-(6-(pyridin-3-yl)-5,6-dihydropyridin-1(2H)-yl)propan-2-yl)benzamide], for which the IC50 was determined as 7 µM.
